Among the data in patent publication EP2970215B1, “PYRROLIDINE DERIVATIVES, PHARMACEUTICAL COMPOSITIONS CONTAINING THEM, AND THEIR USE IN THERAPY” (AbbVie Deutschland GmbH & Co. KG, priority 2013, dated 2014) are Ki values, retold here.

In one experiment the target is T1, human GlyT1c transporter (Homo sapiens, UniProt P48067).
T1 construct: expressed in transfected cells; host or cells: CHO cells (recombinant; line hGlyT1c_5_CHO is named for the uptake assay)
T1 sequence (P48067 1-706): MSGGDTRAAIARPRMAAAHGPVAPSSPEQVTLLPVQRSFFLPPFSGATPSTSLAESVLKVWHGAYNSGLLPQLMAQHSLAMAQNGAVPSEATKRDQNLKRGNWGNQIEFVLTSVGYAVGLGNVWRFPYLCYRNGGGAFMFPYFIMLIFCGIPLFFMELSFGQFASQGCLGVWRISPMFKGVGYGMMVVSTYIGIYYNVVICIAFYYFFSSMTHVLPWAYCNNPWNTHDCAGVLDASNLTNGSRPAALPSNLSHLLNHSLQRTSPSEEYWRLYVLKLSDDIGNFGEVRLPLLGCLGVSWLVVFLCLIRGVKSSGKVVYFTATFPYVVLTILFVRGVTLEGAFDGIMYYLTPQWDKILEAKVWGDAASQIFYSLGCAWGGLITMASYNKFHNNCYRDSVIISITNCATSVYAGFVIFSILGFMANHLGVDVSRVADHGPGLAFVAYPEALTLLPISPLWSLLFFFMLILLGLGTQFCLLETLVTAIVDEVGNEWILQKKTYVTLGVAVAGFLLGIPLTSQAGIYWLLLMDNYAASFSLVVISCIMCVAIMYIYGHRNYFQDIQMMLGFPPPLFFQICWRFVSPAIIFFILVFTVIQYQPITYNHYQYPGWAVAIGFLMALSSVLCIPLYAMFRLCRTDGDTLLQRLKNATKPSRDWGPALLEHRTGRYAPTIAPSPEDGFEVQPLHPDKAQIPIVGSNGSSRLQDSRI
The experiment can be described thus: Radioligand binding assay using recombinant CHO cell membranes expressing human GlyT1. The following applies: radioligand binding to human GlyT1c transporter-expressing membranes. An excerpt:
2. Radioligand binding assays using recombinant CHO cell membranes expressing human GlyT1: […]
As to `Cn1cnc(S(=O)(=O)N2C[C@H](NC(=O)CCCC(F)(F)F)[C@@H](c3ccc(F)cc3)C2)c1` [Example 698, 5,5,5-trifluoro-N-{(3R,4S)-4-(4-fluorophenyl)-1-[(1-methyl-1H-imidazol-4-yl)sulfonyl]pyrrolidin-3-yl}pentanamide], the Ki is at most 1000 nM. On to `CCOc1cc(N[C@H]2CN(S(=O)(=O)c3cn(C)cn3)C[C@@H]2c2ccccc2)ncn1` [Example 620, 6-ethoxy-N-{(3R,4S)-1-[(1-methyl-1H-imidazol-4-yl)sulfonyl]-4-phenylpyrrolidin-3-yl}pyrimidin-4-amine], for which the Ki is at most 1000 nM. On the same count and under the same terms, to `O=S(=O)(C1CCCCC1)N1CC(Nc2ccc(F)c(F)c2)C(c2ccccc2)C1` (centres unmarked) [Example 510, 1-(cyclohexylsulfonyl)-N-(3,4-difluorophenyl)-4-phenylpyrrolidin-3-amine] belongs at most 10000 nM; to `Cn1cnc(S(=O)(=O)N2C[C@@H](Nc3cccc(C(F)(F)F)c3)[C@H](C3CCCOC3)C2)c1` (relative stereo) [Example 782, trans-1-[(1-methyl-1H-imidazol-4-yl)sulfonyl]-4-(tetrahydro-2H-pyran-3-yl)-N-[3-(trifluoromethyl)phenyl]pyrrolidin-3-amine], at most 1000 nM. The same measure, in the same setting: under `Cn1cnc(S(=O)(=O)N2C[C@@H](Nc3ccc4ncccc4c3)[C@H](c3ccccc3)C2)c1` (relative stereo) [Example 229, N-{trans-1-[(1-methyl-1H-imidazol-4-yl)sulfonyl]-4-phenylpyrrolidin-3-yl}quinolin-6-amine] stands at most 10000 nM; under `Cn1cnc(S(=O)(=O)N2C[C@H](Nc3cccc(C(C)(O)C(F)(F)F)c3)[C@@H](c3ccccc3)C2)c1` (stereo partly drawn) [Example 399, 1,1,1-trifluoro-2-[3-({(3R,4S)-1-[(1-methyl-1H-imidazol-4-yl)sulfonyl]-4-phenylpyrrolidin-3-yl}amino)phenyl]propan-2-ol], at most 100 nM; under `Cn1cnc(S(=O)(=O)N2C[C@H](NCCC3CCCC3)[C@@H](c3ccccc3)C2)c1` [Example 427, (3R,4S)-N-(2-cyclopentylethyl)-1-[(1-methyl-1H-imidazol-4-yl)sulfonyl]-4-phenylpyrrolidin-3-amine], at most 100 nM. Still for that read-out and setting: under `Cn1cnc(S(=O)(=O)N2C[C@@H](C(=O)NCc3cc(C(F)(F)F)ccn3)[C@H](c3ccc(F)cc3)C2)c1` (relative stereo) [Example 635, Trans-4-(4-fluorophenyl)-1-[(1-methyl-1H-imidazol-4-yl)sulfonyl]-N-{[4-(trifluoromethyl)pyridin-2-yl]methyl}pyrrolidine-3-carboxamide] stands at most 1000 nM; under `Cn1cnc(S(=O)(=O)N2C[C@H](Nc3cc(C(F)(F)F)ccn3)[C@@H](c3ccccc3)C2)c1` [Example 396, N-{(3R,4S)-1-[(1-methyl-1H-imidazol-4-yl)sulfonyl]-4-phenylpyrrolidin-3-yl}-4-(trifluoromethyl)pyridin-2-amine], at most 10 nM; under `Cn1cnc(S(=O)(=O)N2C[C@@H](Nc3ccc4cccnc4c3)[C@H](c3ccccc3)C2)c1` (relative stereo) [Example 228, N-{trans-1-[(1-methyl-1H-imidazol-4-yl)sulfonyl]-4-phenylpyrrolidin-3-yl}quinolin-7-amine], at most 10000 nM.

Consider `Cn1cnc(S(=O)(=O)N2C[C@@H](NCc3cccc(C#N)c3)[C@H](c3ccc(F)cc3)C2)c1` (relative stereo) [Example 152, 3-[({trans-4-(4-fluorophenyl)-1-[(1-methyl-1H-imidazol-4-yl)sulfonyl]pyrrolidin-3-yl}amino)methyl]benzonitrile], for which the Ki was at most 1000 nM.

For `Cn1cnc(S(=O)(=O)N2C[C@@H](Nc3ccc(F)cc3)[C@H](c3ccc(F)cc3)C2)c1` (relative stereo) [Example 92, trans-N,4-bis(4-fluorophenyl)-1-[(1-methyl-1H-imidazol-4-yl)sulfonyl]pyrrolidin-3-amine], the Ki is at most 100 nM.

In the case of `COCCN[C@H]1CN(S(=O)(=O)c2cn(C)cn2)C[C@@H]1c1ccccc1` [Example 600, (3R,4S)-N-(2-methoxyethyl)-1-[(1-methyl-1H-imidazol-4-yl)sulfonyl]-4-phenylpyrrolidin-3-amine], the inhibition constant Ki is at most 10000 nM. On to `Cc1ccc(S(=O)(=O)N2CC(Nc3ccc(F)c(F)c3)C(c3ccccc3)C2)s1` (centres unmarked) [Example 518, N-(3,4-difluorophenyl)-1-[(5-methylthiophen-2-yl)sulfonyl]-4-phenylpyrrolidin-3-amine], for which the inhibition constant Ki is above 10000 nM.

Take `Cn1cnc(S(=O)(=O)N2C[C@H](Nc3cccc(Cl)c3)[C@@H](c3ccc(F)cc3)C2)c1` [Example 328, (3R,4S)-N-(3-chlorophenyl)-4-(4-fluorophenyl)-1-[(1-methyl-1H-imidazol-4-yl)sulfonyl]pyrrolidin-3-amine]: the Ki was at most 100 nM. For the compound `Cn1cnc(S(=O)(=O)N2C[C@H](NCCCC(F)(F)F)[C@@H](c3ccccc3)C2)c1` [Example 426, (3R,4S)-1-[(1-methyl-1H-imidazol-4-yl)sulfonyl]-4-phenyl-N-(4,4,4-trifluorobutyl)pyrrolidin-3-amine], the inhibition constant Ki was at most 1000 nM. Regarding `Cn1cnc(S(=O)(=O)N2C[C@@H](CNc3ccc(C(F)(F)F)c(Cl)c3)[C@H](c3ccc(F)cc3)C2)c1` (relative stereo) [Example 311, 3-chloro-N-({trans-4-(4-fluorophenyl)-1-[(1-methyl-1H-imidazol-4-yl)sulfonyl]pyrrolidin-3-yl}methyl)-4-(trifluoromethyl)aniline], the inhibition constant Ki was at most 1000 nM.

Turning to `Cn1cnc(S(=O)(=O)N2C[C@H](Nc3ccc4c(c3)CCCO4)[C@@H](c3ccccc3)C2)c1` [Example 658, (3R,4S)-N-(3,4-dihydro-2H-chromen-6-yl)-1-[(1-methyl-1H-imidazol-4-yl)sulfonyl]-4-phenylpyrrolidin-3-amine], the Ki was at most 1000 nM. Still for that read-out and setting: to `Cn1cnc(S(=O)(=O)N2C[C@H](Nc3cc(Cl)ncn3)[C@@H](c3ccc(F)cc3)C2)c1` [Example 691, 6-chloro-N-{(3R,4S)-4-(4-fluorophenyl)-1-[(1-methyl-1H-imidazol-4-yl)sulfonyl]pyrrolidin-3-yl}pyrimidin-4-amine] belongs at most 100 nM; to `O=C1Cc2cc(S(=O)(=O)N3CC(Nc4ccc(F)c(F)c4)C(c4ccccc4)C3)ccc2N1` (centres unmarked) [Example 507, 5-({3-[(3,4-difluorophenyl)amino]-4-phenylpyrrolidin-1-yl}sulfonyl)-1,3-dihydro-2H-indol-2-one], at most 10000 nM.

Take `Cn1cnc(S(=O)(=O)N2C[C@@H](COc3ccnc(C(F)(F)F)c3)[C@H](c3ccc(F)cc3)C2)c1` (relative stereo) [Example 366, 4-({Trans-4-(4-fluorophenyl)-1-[(1-methyl-1H-imidazol-4-yl)sulfonyl]pyrrolidin-3-yl}methoxy)-2-(trifluoromethyl)pyridine]: the Ki was at most 100 nM. The same measure, in the same setting: under `Cn1cnc(S(=O)(=O)N2C[C@H](Nc3ccc(Cl)c(C(F)(F)F)c3)[C@@H](c3cocn3)C2)c1` [Example 753] stands at most 1000 nM.

Still in this experiment, the particulars now being: radioligand binding, recombinant CHO cell membranes expressing human GlyT1c.
For `Cn1cnc(S(=O)(=O)N2C[C@@H](Nc3cccc(Cl)c3)[C@H](C3CCOC3)C2)c1` (relative stereo) [Example 829, trans-N-(3-chlorophenyl)-1-[(1-methyl-1H-imidazol-4-yl)sulfonyl]-4-(tetrahydrofuran-3-yl)pyrrolidin-3-amine], the Ki was at most 10000 nM.

The term Ki denotes a measure of affinity in units of concentration, obtained from inhibition or displacement.
